{"source": "patent US20240308992A1", "about": "(Biopolar Youtang(Guangdong) Pharmaceutical Co., Ltd., priority 2021, published 2024)", "data": [{"target": "T1, Drak2 (Homo sapiens, UniProt O94768)", "T1 sequence (O94768 1-372)": "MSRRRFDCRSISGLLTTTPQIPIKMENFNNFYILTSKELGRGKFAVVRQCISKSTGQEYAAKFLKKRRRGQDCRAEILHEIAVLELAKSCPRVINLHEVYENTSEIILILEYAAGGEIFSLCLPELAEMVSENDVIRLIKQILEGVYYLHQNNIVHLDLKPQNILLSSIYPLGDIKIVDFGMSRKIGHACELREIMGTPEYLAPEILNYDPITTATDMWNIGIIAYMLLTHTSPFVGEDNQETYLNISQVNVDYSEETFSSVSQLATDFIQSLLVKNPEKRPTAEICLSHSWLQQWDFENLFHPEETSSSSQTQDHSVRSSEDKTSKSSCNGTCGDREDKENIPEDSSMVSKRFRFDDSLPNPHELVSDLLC", "assay": "Drak2 activity test, ADP-Glo kinase assay (Promega)", "format": "biochemical", "details": "inhibition of Drak2 kinase activity, 2 h room temperature, activity range classes, read-out: IC50_Drak2", "units": {"IC50": "nM"}, "values": [{"smiles": "COc1ccc(-c2cncc(-c3cc(NC(=O)C4CCC4)cs3)n2)cc1OC", "note": "[Example A7, N-(5-(6-(3,4-dimethoxyphenyl)pyrazin-2-yl)thiophen-3-yl)cyclobutanecarboxamide]", "IC50": "101 to 1000"}, {"smiles": "COc1ccc(-c2cncc(-c3cc(NC(=O)C4CCCC4)cs3)n2)cc1OC", "note": "[Example A8, N-(5-(6-(3,4-dimethoxyphenyl)pyrazin-2-yl)thiophen-3-yl)cyclopentanecarboxamide]", "IC50": "101 to 1000"}, {"smiles": "COc1ccc(-c2cncc(-c3cc(NC(=O)C4CCCCC4)cs3)n2)cc1OC", "note": "[Example A9, N-(5-(6-(3,4-dimethoxyphenyl)pyrazin-2-yl)thiophen-3-yl)cyclohexanecarboxamide]", "IC50": "101 to 1000"}, {"smiles": "COc1ccc(-c2cncc(-c3cc(NC(=O)c4ccccc4)cs3)n2)cc1OC", "note": "[Example A10, N-(5-(6-(3,4-dimethoxyphenyl)pyrazin-2-yl)thiophen-3-yl)benzamide]", "IC50": "1000 to 10000"}, {"smiles": "CCCCC(=O)Nc1csc(-c2nccc(-c3ccc(OC)c(OC)c3)n2)c1", "note": "[Example A11, N-(5-(4-(3,4-dimethoxyphenyl)pyrimidin-2-yl)thiophen-3-yl)pentanamide]", "IC50": "> 10000"}, {"smiles": "CCCCC(=O)Nc1csc(-c2cncc(-c3cccc(OC)c3OC)n2)c1", "note": "[Example A12, N-(5-(6-(2,3-dimethoxyphenyl)pyrazin-2-yl)thiophen-3-yl)pentanamide]", "IC50": "1000 to 10000"}, {"smiles": "CCCCC(=O)Nc1csc(-c2cncc(-c3cc(OC)ccc3OC)n2)c1", "note": "[Example A13, N-(5-(6-(2,5-dimethoxyphenyl)pyrazin-2-yl)thiophen-3-yl)pentanamide]", "IC50": "101 to 1000"}, {"smiles": "COc1ccc(OC)c(-c2cncc(-c3cc(NC(=O)C4CCC4)cs3)n2)c1", "note": "[Example A14, N-(5-(6-(2,5-dimethoxyphenyl)pyrazin-2-yl)thiophen-3-yl)cyclobutanecarboxamide]", "IC50": "1000 to 10000"}, {"smiles": "COc1cc(-c2cncc(-c3cc(NC(=O)C4CCC4)cs3)n2)ccc1Cl", "note": "[Example A15, N-(5-(6-(4-chloro-3-methoxyphenyl)pyrazin-2-yl)thiophen-3-yl)cyclobutanecarboxamide]", "IC50": "101 to 1000"}, {"smiles": "CCCCC(=O)Nc1csc(-c2cncc(-c3ccc(Cl)c(OC)c3)n2)c1", "note": "[Example A16, N-(5-(6-(4-chloro-3-methoxyphenyl)pyrazin-2-yl)thiophen-3-yl)pentanamide]", "IC50": "1000 to 10000"}, {"smiles": "COc1ccc(-c2cncc(-c3cc(NC(=O)C4CCC4)cs3)n2)cc1Cl", "note": "[Example A17, N-(5-(6-(3-chloro-4-methoxyphenyl)pyrazin-2-yl)thiophen-3-yl)cyclobutanecarboxamide]", "IC50": "101 to 1000"}, {"smiles": "CCCCC(=O)Nc1csc(-c2cncc(-c3cc(OC)cc(OC)c3)n2)c1", "note": "[Example A18, N-(5-(6-(3,5-dimethoxyphenyl)pyrazin-2-yl)thiophen-3-yl)pentanamide]", "IC50": "101 to 1000"}, {"smiles": "CCCCC(=O)Nc1csc(-c2cncc(-c3ccc(OC)c(Cl)c3)n2)c1", "note": "[Example A19, N-(5-(6-(3-chloro-4-methoxyphenyl)pyrazin-2-yl)thiophen-3-yl)pentanamide]", "IC50": "101 to 1000"}, {"smiles": "CCCCC(=O)Nc1csc(-c2cncc(-c3ccc(C#N)c(OC)c3)n2)c1", "note": "[Example A20, N-(5-(6-(4-cyano-3-methoxyphenyl)pyrazin-2-yl)thiophen-3-yl)pentanamide]", "IC50": "101 to 1000"}, {"smiles": "CCCCC(=O)Nc1csc(-c2cncc(-c3ccc(OC)c(C#N)c3)n2)c1", "note": "[Example A21, N-(5-(6-(3-cyano-4-methoxyphenyl)pyrazin-2-yl)thiophen-3-yl)pentanamide]", "IC50": "101 to 1000"}, {"smiles": "COc1ccc(-c2cncc(-c3cc(NC(=O)C4CCC4)cs3)n2)cc1C#N", "note": "[Example A22, N-(5-(6-(3-cyano-4-methoxyphenyl)pyrazin-2-yl)thiophen-3-yl)cyclobutanecarboxamide]", "IC50": "101 to 1000"}, {"smiles": "CCCCC(=O)Nc1csc(-c2cncc(-c3ccc4c(c3)OCO4)n2)c1", "note": "[Example A23, N-(5-(6-(benzo[d][1,3]dioxol-5-yl)pyrazin-2-yl)thiophen-3-yl)pentanamide]", "IC50": "101 to 1000"}, {"smiles": "O=C(Nc1csc(-c2cncc(-c3ccc4c(c3)OCO4)n2)c1)C1CCC1", "note": "[Example A24, N-(5-(6-(benzo[d][1,3]dioxol-5-yl)pyrazin-2-yl)thiophen-3-yl)cyclobutanecarboxamide]", "IC50": "1000 to 10000"}, {"smiles": "COc1cc(C(N)=O)c(-c2cncc(-c3cc(NC(=O)C4CCC4)cs3)n2)cc1OC", "note": "[Example A25, 2-(6-(4-(cyclobutanecarboxamido)thiophen-2-yl)pyrazin-2-yl)-4,5-dimethoxybenzamide]", "IC50": "> 10000"}, {"smiles": "CCCCC(=O)Nc1csc(-c2cncc(-c3cc(OC)c(OC)cc3C(N)=O)n2)c1", "note": "[Example A26, 4,5-dimethoxy-2-(6-(4-pentanamidothiophen-2-yl)pyrazin-2-yl)benzamide]", "IC50": "1000 to 10000"}, {"smiles": "CCCCC(=O)Nc1csc(-c2cncc(-c3ccc(F)c(F)c3)n2)c1", "note": "[Example A27, N-(5-(6-(3,4-difluorophenyl)pyrazin-2-yl)thiophen-3-yl)pentanamide]", "IC50": "1000 to 10000"}, {"smiles": "O=C(Nc1csc(-c2cncc(-c3ccc(F)c(F)c3)n2)c1)C1CCC1", "note": "[Example A28, N-(5-(6-(3,4-difluorophenyl)pyrazin-2-yl)thiophen-3-yl)cyclobutanecarboxamide]", "IC50": "1000 to 10000"}, {"smiles": "CCCCCC(=O)Nc1csc(-c2cncc(-c3ccc(OC)c(OC)c3)n2)c1", "note": "[Example A29, N-(5-(6-(3,4-dimethoxyphenyl)pyrazin-2-yl)thiophen-3-yl)hexanamide]", "IC50": "101 to 1000"}, {"smiles": "CCCCCCC(=O)Nc1csc(-c2cncc(-c3ccc(OC)c(OC)c3)n2)c1", "note": "[Example A30, N-(5-(6-(3,4-dimethoxyphenyl)pyrazin-2-yl)thiophen-3-yl)heptanamide]", "IC50": "> 10000"}, {"smiles": "COc1ccc(-c2cncc(-c3cc(NC(=O)CC4CC4)cs3)n2)cc1OC", "note": "[Example A31, 2-cyclopropyl-N-(5-(6-(3,4-dimethoxyphenyl)pyrazin-2-yl)thiophen-3-yl)acetamide]", "IC50": "11 to 100"}, {"smiles": "COc1ccc(-c2cncc(-c3cc(NC(=O)CC4CCC4)cs3)n2)cc1OC", "note": "[Example A32, 2-cyclobutyl-N-(5-(6-(3,4-dimethoxyphenyl)pyrazin-2-yl)thiophen-3-yl)acetamide]", "IC50": "11 to 100"}, {"smiles": "COc1ccc(-c2cncc(-c3cc(NC(=O)CC4CCCC4)cs3)n2)cc1OC", "note": "[Example A33, 2-cyclopentyl-N-(5-(6-(3,4-dimethoxyphenyl)pyrazin-2-yl)thiophen-3-yl)acetamide]", "IC50": "101 to 1000"}, {"smiles": "CCCCC(=O)Nc1csc(-c2cncc(-c3ccc(O)c(F)c3)n2)c1", "note": "[Example A34, N-(5-(6-(3-fluoro-4-hydroxyphenyl)pyrazin-2-yl)thiophen-3-yl)pentanamide]", "IC50": "11 to 100"}, {"smiles": "CCCCC(=O)Nc1csc(-c2cncc(-c3ccc(C4(O)COC4)c(OC)c3)n2)c1", "note": "[Example A35, N-(5-(6-(4-(3-hydroxyoxetan-3-yl)-3-methoxyphenyl)pyrazin-2-yl)thiophen-3-yl)pentanamide]", "IC50": "11 to 100"}, {"smiles": "CCCCC(=O)Nc1csc(-c2cncc(-c3ccc(-c4cc(O)no4)c(OC)c3)n2)c1", "note": "[Example A36, N-(5-(6-(4-(3-hydroxyisoxazol-5-yl)-3-methoxyphenyl)pyrazin-2-yl)thiophen-3-yl)pentanamide]", "IC50": "101 to 1000"}, {"smiles": "CCCCC(=O)Nc1csc(-c2cncc(-c3ccc(C4=NOC(=O)C4)c(OC)c3)n2)c1", "note": "[Example A37, N-(5-(6-(3-methoxy-4-(5-oxo-4,5-dihydroisoxazol-3-yl)phenyl)pyrazin-2-yl)thiophen-3-yl)pentanamide]", "IC50": "101 to 1000"}]}]}
